Experimental data reported in patent publication US6482841B1, “Pyridyl compounds and pharmaceutical compositions containing them” (Cermol S.A., priority 1997, dated 2002).

How the values were obtained:
[1] = tested on: isolated guinea-pig ventricular myocytes; assay: Protection of isolated ventricular myocytes from hypercontracture obtained by incubation under N2 atmosphere; format: cell-based; details: 30 nM, with reference to vehicle-treated cells
Method: (§1) Isolated guinea-pig ventricular myocytes were obtained following the method described by Powell et al. (J. Physiol., 1980, 102: 131) as modified by Levi et al. (J. Physiol., 1990, 425:9P). Cell hypercontracture and death was obtained either by incubation under N2 atmosphere or by incubation with veratridine which induced important changes in the ionic homeostase of cardiomyocytes (Hiroko Hashizume et al., European Journal of Pharmacology, […], 271: 1-8). Results expressed as percentage of cells protected from hypercontracture i.e. maintaining its rod-shaped morphology with reference to vehicle-treated cells are given in the tables I and II hereafter.

anaesthetised rats = assay: In vivo cardioprotective effect: coronary occlusion and reperfusion in anaesthetised rats; design: species or system rat; details: 2 × 20 mg/kg orally (one day and one hour before the experiment)
Description: Cardiac death and arrhythmias were induced by the coronary occlusion and reperfusion method in anaesthetised rats according to the method of Seyle et al. (Angiology, 1960, 11, 398-407) modified by Krzeminski T. (“proceedings of 7th Freiburg Focus of Biomeasurement”, Strasbourg, 16-19 September 1991) Cardiovascular and Respiratory in vivo Studies, Biomesstechnik, Verlag March GmbH, Germany) and according to the LAMBETH conventions (Walker M. J. A. et al., Cardiovasc Re., […], 22, 447-455). The products have been administered orally (one day and one hour before the experiment). They are given in percentage of protection against the mortality and the arrhythmias (ventricular fibrillations).

[2] = tested on: isolated guinea-pig ventricular myocytes; assay: Protection of isolated ventricular myocytes from hypercontracture obtained by incubation with veratridine; format: cell-based; details: 1 μM, with reference to vehicle-treated cells
Method: as §1

[3] = tested on: guinea-pig ventricular cardiomyocytes action potential; assay: Action potential of ventricular cardiomyocytes in anoxic condition under N2 atmosphere (patch clamp); format: cell-based; details: 100-300 nM
Method: (§2) In order to confirm the cardioprotection, the activity of one of the most interesting compound (example 31 according to the invention) was tested on guinea-pig ventricular cardiomyocytes action potential (AP) in the presence of veratridine or in anoxic condition. The action potential (AP) time courses of guinea-pig ventricular cardiomyocytes treated with veratridine or made anoxic by incubation under N2 atmosphere were measured (patch clamp technique) in absence and presence of the compound of example 31 according to the invention. […] In anoxic conditions, there is a shortening of cardiomyocyte action potential duration related mainly with an activation of K+-ATP dependent current.

[4] = tested on: guinea-pig ventricular cardiomyocytes action potential; assay: Action potential of ventricular cardiomyocytes in the presence of veratridine (patch clamp); format: cell-based
Method: as §2

SMILES: Cc1nc(C)c(C(=O)OCC2CCCO2)c(-c2cccc([N+](=O)[O-])c2)c1C(=O)OCC1CCCO1.Cl (centres unmarked)
- melting point: 75 to 77 °C

SMILES: COC(=O)c1c(C)nc(C)c(C(=O)OCC2CCCO2)c1-c1cccc(NC(C)=O)c1.Cl (centres unmarked)
- melting point: 196 to 198 °C

SMILES: COC(=O)c1c(C)nc(C)c(C(=O)OCC2CCCO2)c1-c1cccc(O)c1.Cl (centres unmarked)
- melting point: 95 to 97 °C

SMILES: COC(=O)c1c(C)nc(C)c(C(=O)OCC2CCCO2)c1-c1cccc(F)c1 (centres unmarked) [Example 3, 2,6-Dimethyl-4-(3-fluorophenyl) pyridine-3,5-dicarboxylic acid 3-methyl ester 5-(tetrahydrofuran-2-ylmethyl) ester]
- melting point: 66 to 68 °C

SMILES: COC(=O)c1c(C)nc(C)c(C(=O)OCC2CCCO2)c1-c1ccccc1[N+](=O)[O-] (centres unmarked) [Example 12, 2,6-Dimethyl-4-(2-nitrophenyl) pyridine-3,5-dicarboxylic acid 3-methyl ester 5-(tetrahydrofuran-2-ylmethyl) ester]
- % Protection (cells protected from hypercontracture) [1]: 80%
- % PROTECTION AGAINST DEATH (anaesthetised rats): 100%
- % PROTECTION AGAINST VENTRICULAR FIBRILLATIONS (anaesthetised rats): 100%
- % Protection (cells protected from hypercontracture) [2]: 57%

SMILES: COC(=O)c1c(C)nc(C)c(C(=O)OCC2CCC(=O)O2)c1-c1ccccc1[N+](=O)[O-] (centres unmarked) [Example 15, 2,6-Dimethyl-4-(2-nitrophenyl) pyridine-3,5-dicarboxylic acid 3-methyl ester 5-(5-oxotetrahydrofuran-2-ylmethyl)ester]
- melting point: 132 to 134 °C

SMILES: COCCOC(=O)c1c(C)nc(C)c(C(=O)OC(C)C)c1-c1cccc([N+](=O)[O-])c1 [Example 22, 2,6-Dimethyl-4-(3-nitrophenyl)-pyridine-3,5-dicarboxylic acid 3-isopropyl ester 5-(2-methoxyethyl) ester]
- % Protection (cells protected from hypercontracture) [1]: 63%
- % PROTECTION AGAINST DEATH (anaesthetised rats): 100%
- % PROTECTION AGAINST VENTRICULAR FIBRILLATIONS (anaesthetised rats): 50%
- % Protection (cells protected from hypercontracture) [2]: 37.5%

SMILES: COC(=O)c1c(C)nc(C)c(C(=O)OCC(C)C)c1-c1ccccc1[N+](=O)[O-] [Example 23, 2,6-Dimethyl-4-(2-nitrophenyl)-pyridine-3,5-dicarboxylic acid 3-methyl ester 5-isobutyl ester]
- % Protection (cells protected from hypercontracture) [1]: 50%
- % PROTECTION AGAINST DEATH (anaesthetised rats): 100%
- % PROTECTION AGAINST VENTRICULAR FIBRILLATIONS (anaesthetised rats): 75%
- % Protection (cells protected from hypercontracture) [2]: 41.3%

SMILES: CCOC(=O)c1c(C)nc(C)c(C(=O)OC)c1-c1cccc([N+](=O)[O-])c1 [Example 24, 2,6-Dimethyl-4-(3-nitrophenyl)pyridine-3,5-dicarboxylic acid 3-ethyl 5-methyl ester]
- % Protection (cells protected from hypercontracture) [1]: 60%
- % PROTECTION AGAINST DEATH (anaesthetised rats): 100%
- % PROTECTION AGAINST VENTRICULAR FIBRILLATIONS (anaesthetised rats): 37.5%
- % Protection (cells protected from hypercontracture) [2]: 37.5%

SMILES: COC(=O)c1c(C)nc(C)c(C(=O)OC)c1-c1ccccc1[N+](=O)[O-] [Example 25, 2,6-Dimethyl-4-(2-nitrophenyl) pyridine-3,5-dicarboxylic acid dimethyl ester]
- % Protection (cells protected from hypercontracture) [1]: 50%
- % PROTECTION AGAINST DEATH (anaesthetised rats): 100%
- % PROTECTION AGAINST VENTRICULAR FIBRILLATIONS (anaesthetised rats): 50%
- % Protection (cells protected from hypercontracture) [2]: 34%

SMILES: COC(=O)c1c(C)nc(C)c(C(=O)O)c1-c1ccccc1[N+](=O)[O-] [Example 31, 2,6-Dimethyl-4-(2-nitrophenyl) pyridine-3,5-dicarboxylic acid 3-methyl ester]
- % Protection (cells protected from hypercontracture) [1]: 58%
- % PROTECTION AGAINST DEATH (anaesthetised rats): 85.7%
- % PROTECTION AGAINST VENTRICULAR FIBRILLATIONS (anaesthetised rats): 73.4%
- % Protection (cells protected from hypercontracture) [2]: 64%
- Shortening of cardiomyocyte action potential duration in anoxic conditions (K+-ATP dependent current) [3]: inhibited dose-dependently and strongly
- Prolongation of cardiomyocyte action potential duration induced by veratridine ([4]; 100-300 nM, veratridine): prevents
- Influence on the normal action potential ([4]; normal action potential): does not influence significantly
